{"source": "patent US20140212407A1", "about": "“TREATMENT OF OBESITY” (Isis Innovation Limited, priority 2008, published 2014)", "key": {"[1]": {"details": "Badiou et al. 2005; cited from earlier work"}, "[2]": {"test": "Body weight and food intake in rats on MR diet with or without L-cysteine, 3 weeks", "type": "in vivo, rat", "details": "L-cysteine 5 g/kg added to MR diet, preliminary", "from_the_text": "To distinguish the effect of cysteine on body weight from that of methionine, the same experiment described above was repeated with addition of a third group. In addition to the methionine restricted (MR) and control groups, a third group was included comprising rats fed an MR diet supplemented with L-cysteine at a concentration of 5 g/kg diet. Age of the rats at the start of experiment, housing conditions and MR and control diets were similar to those in the above experiment. Food and water were provided ad libitum. Each group consisted of 8 rats; there was no significant difference in body weight between the 3 groups at baseline."}, "gene for CGL": {"tested_on": "gene for CGL", "details": "by inhibition of the ERK/Sp1 signalling pathway; Fiorucci et al 2005; cited from earlier work"}, "[3]": {"details": "humans, concentration-dependent; Smith et al 2003; cited from earlier work"}, "[4]": {"target": "cystathionine γ-lyase (CGL) (Homo sapiens, UniProt P32929)", "sequence (P32929 whole entry)": "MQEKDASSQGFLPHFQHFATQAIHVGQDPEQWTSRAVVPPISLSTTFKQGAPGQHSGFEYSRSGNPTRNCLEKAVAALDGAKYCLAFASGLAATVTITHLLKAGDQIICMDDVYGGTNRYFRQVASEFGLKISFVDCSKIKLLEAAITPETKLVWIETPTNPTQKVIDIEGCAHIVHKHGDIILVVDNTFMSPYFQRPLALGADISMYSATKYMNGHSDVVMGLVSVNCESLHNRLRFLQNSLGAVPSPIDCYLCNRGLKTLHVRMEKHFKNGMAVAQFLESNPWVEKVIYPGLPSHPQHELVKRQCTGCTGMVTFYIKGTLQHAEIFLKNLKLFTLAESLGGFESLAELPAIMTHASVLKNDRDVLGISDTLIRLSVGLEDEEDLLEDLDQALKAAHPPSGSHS", "details": "Steegborn et al J Biol Chem 1999; cited from earlier work"}}, "data": [{"smiles": "CC1(C)C[C@@H]1C(=O)N/C(=C\\CCCCSC[C@H](N)C(=O)O)C(=O)O", "note": "[Cilastatin, cilastatin]", "values": [{"measurement": "plasma cysteine levels", "setting": "[1]", "value": "lowers plasma cysteine levels"}]}, {"smiles": "N[C@@H](CS)C(=O)O", "note": "[L-cysteine]", "values": [{"measurement": "effect on weight gain of MR rats", "setting": "[2]", "value": "prevented the decrease in weight gain"}]}, {"smiles": "CC(=O)Oc1ccccc1C(=O)O", "note": "[aspirin]", "values": [{"measurement": "expression of the gene for CGL", "setting": "gene for CGL", "value": "reduce expression"}]}, {"smiles": "COc1ccc2c(c1)c(CC(=O)O)c(C)n2C(=O)c1ccc(Cl)cc1", "note": "[indomethacin]", "values": [{"measurement": "expression of the gene for CGL", "setting": "gene for CGL", "value": "reduce expression"}]}, {"smiles": "CC(C(=O)O)c1cccc(C(=O)c2ccccc2)c1", "note": "(stereo not shown) [ketoprofen]", "values": [{"measurement": "expression of the gene for CGL", "setting": "gene for CGL", "value": "reduce expression"}]}, {"smiles": "O=S(=O)(O)CCS", "note": "[mesna]", "values": [{"measurement": "plasma level of cysteine", "setting": "[3]", "value": "markedly reduces"}]}, {"smiles": "C#CCC(N)C(=O)O", "note": "(stereo not shown) [propargylglycine]", "values": [{"measurement": "inhibition of CGL enzyme activity", "setting": "[4]", "value": "potent inhibitors"}]}]}
